The values that follow come from paper PMC12441834, “Highly Potent and Subtype-Selective Sperm-Specific Potassium Channel SLO3 Inhibitors Display High Tissue Exposure in the Murine Female Reproductive Tract” (ACS Pharmacology & Translational Science, 2025).

Data set [1] is described as follows: Discrete IV PK in female mice. It is filed as in vivo, mouse. The following applies: 5 mg/kg IV. How it is done: In-life phase–Compounds were formulated in 12% ethanol, 48% PEG400, and 40% DMSO (v/v/v) at a concentration of 1 mg/mL and administered as a single 0.2 mg/kg IV dose (1 mL/kg) to male, Sprague–Dawley rats (n = 1; 342 g body weight) via injection into a surgically implanted jugular vein catheter. Blood samples were collected serially from a surgically implanted carotid artery catheter in each animal over multiple postadministration time points (0.033, 0.117, 0.25, 0.5, 1, 2, 4, 7, and 24 h) into chilled, K2EDTA anticoagulant-fortified tubes and immediately placed on wet ice. The blood samples were then centrifuged (1700 rcf, 5 min, 4 °C) in order to obtain plasma samples, which were stored at −80 °C until analysis by LC-MS/MS. VU6032735 was also dosed IV in C57Bl6 mice at 5 mg/kg IV to determine mouse PK. Formulation and experimental design were identical to those used for rats except that whole blood was used for analysis.
(§1) Samples were analyzed via electrospray ionization (ESI) LC-MS/MS on an AB Sciex 4500 (Foster City, CA) triple-quadrupole instrument that was coupled with an Agilent 1290 Infinity Binary Pump and multisampler (Santa Clara, CA) and concentrations (ng/mL or ng/g) were determined using a matrix-matched 10-point standard curve and then converted to nM concentrations. Quantitation of compounds was performed via AB Sciex Multiquant software using the raw analyte:IS peak area ratios. The typical detection range was 0.5 ng/mL to ≥5000 ng/mL utilizing a quadratic equation regression with 1/x² weighting. Correction for dilution of all tissue samples was performed postquantitation. The corrections for dilution in the extraction buffer employed correction factors specific to each tissue weight.

Data set [2] is described as follows: Drug concentrations in compartments of the murine FRT after IP dosing. It is filed as in vivo, mouse. The following applies: 10 mg/kg IP; for concentration at 0.25 hr / concentration at 0.5 hr / concentration at 1 hr / concentration at 3 hr / concentration at 6 hr / concentration at 24 hr: mouse. The procedure:
as §1
In subsequent experiments, mice were dosed by injection into the peritoneum (ip) as a single 10 mg/kg dose, the reproductive organs were dissected, and the ovaries, the oviducts, and the uterus were pooled from 2 animals and frozen. Tissues were subjected to mechanical homogenization (Mini-BeadBeater, BioSpec Products, Inc., Bartlesville, OK) in the presence of stainless-steel beads (1.0 mm) and extraction buffer (isopropanol:water, 7:3, v/v; 1 mL per sample for whole reproductive organs and uterus and 250 μL for ovaries and oviducts). Homogenized tissue samples were then centrifuged (4000 rcf, 5 min, ambient temperature), and 5 μL of the supernatant was used for quantification of the analyte. The plasma standard curve and QCs were used for compound quantitation in reproductive tissues.

The target in the next data set is T1, hSLO2.2 (Homo sapiens, UniProt Q5JUK3).
T1 construct: expressed in transfected cells; host or cells: HEK
Kind of data set: SLO2.2 inhibition in HEK cells. The class given is cell-based.

[3] abbreviates: ovary, female mice, read-out: Ovary concentration.
The mark [4] stands for this setting: oviduct, female mice, read-out: Oviduct concentration.
Setting [5] is: plasma, female mice, read-out: Plasma concentration.
[6] abbreviates: uterus, female mice, read-out: Uterus concentration.

Read-outs that look alike come from different tables or passages of the source.

T1 sequence (Q5JUK3 whole entry): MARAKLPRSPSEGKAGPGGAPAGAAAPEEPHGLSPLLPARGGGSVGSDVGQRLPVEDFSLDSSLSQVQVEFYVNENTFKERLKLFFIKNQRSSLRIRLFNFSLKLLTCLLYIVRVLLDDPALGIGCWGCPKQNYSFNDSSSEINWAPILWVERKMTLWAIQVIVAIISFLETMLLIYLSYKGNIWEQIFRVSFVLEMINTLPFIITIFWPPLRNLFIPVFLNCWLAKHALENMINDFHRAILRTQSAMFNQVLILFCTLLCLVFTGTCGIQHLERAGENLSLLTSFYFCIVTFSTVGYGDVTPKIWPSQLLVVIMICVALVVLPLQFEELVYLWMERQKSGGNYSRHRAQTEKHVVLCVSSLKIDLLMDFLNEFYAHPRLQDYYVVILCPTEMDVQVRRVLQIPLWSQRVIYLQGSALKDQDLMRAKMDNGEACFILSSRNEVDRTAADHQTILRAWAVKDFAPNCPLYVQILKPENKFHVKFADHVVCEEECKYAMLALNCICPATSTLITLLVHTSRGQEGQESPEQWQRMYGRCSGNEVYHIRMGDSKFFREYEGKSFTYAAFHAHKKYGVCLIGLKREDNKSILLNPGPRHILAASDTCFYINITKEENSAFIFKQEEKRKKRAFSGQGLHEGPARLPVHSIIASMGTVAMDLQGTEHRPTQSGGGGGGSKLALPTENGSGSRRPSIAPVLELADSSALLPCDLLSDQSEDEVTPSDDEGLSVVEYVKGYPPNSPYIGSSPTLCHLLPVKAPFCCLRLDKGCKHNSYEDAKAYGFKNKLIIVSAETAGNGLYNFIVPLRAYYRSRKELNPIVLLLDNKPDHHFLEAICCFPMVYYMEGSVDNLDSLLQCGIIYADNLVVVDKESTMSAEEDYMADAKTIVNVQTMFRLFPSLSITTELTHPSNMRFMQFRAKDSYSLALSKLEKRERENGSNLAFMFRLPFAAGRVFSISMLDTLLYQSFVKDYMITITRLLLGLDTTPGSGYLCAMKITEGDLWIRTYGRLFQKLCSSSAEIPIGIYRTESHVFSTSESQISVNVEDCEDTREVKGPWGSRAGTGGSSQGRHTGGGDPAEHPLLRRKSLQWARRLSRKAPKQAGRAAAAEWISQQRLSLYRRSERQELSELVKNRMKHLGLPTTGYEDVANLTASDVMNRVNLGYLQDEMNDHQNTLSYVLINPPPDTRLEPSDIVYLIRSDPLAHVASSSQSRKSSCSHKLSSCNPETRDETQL

`O=C(c1ccc(OCc2ccc(OC(F)(F)F)cc2)cc1)N1CCN(c2ccc(C(F)(F)F)cn2)CC1` [VU6032735] yielded a CLobs in data set [1] of 8.6 mL/min/kg. Besides, in data set [1] (C57Bl6, mouse, whole blood), the AUC – broadly, the area under the concentration-time curve, a measure of exposure – was 9840 ng·h/mL and the MRT (in general, a mean duration of stay, worked out from the concentration-time curve) stood at 45.9 h. In data set [1] (C57Bl6, mouse, whole blood, read-out: Elim. t1/2 (converted)), the half-life is 33.7 h. Also, the Vd in data set [1] (C57Bl6, mouse, whole blood, read-out: Vss) was found to be 23.6 L/kg. In data set [2] (24 h, versus IC50 in mouse sperm and in mSLO3-γ2 HEK293 cells), the “oviduct total drug concentration relative to mSLO3 IC50” value is on record as 4.4- to 5.5 fold. Besides, in data set [2] (female mice), the “oviduct concentration relative to ovary” value came to 10 fold and the “oviduct concentration relative to uterus” value turned out to be 5 fold. Moreover, the “total concentrations in the different compartments of the reproductive tract” value in data set [2] (female mice, for 24 h after dosing) is on record as “above 1 μM”. In data set [2] (setting [3]), the concentration at 0.25 hr amounted to 7.52 µM, the concentration at 0.5 hr turned out to be 7.69 µM, the concentration at 1 hr is 7.45 µM and the concentration at 3 hr was 2.63 µM. In data set [2] (setting [3]), the concentration at 6 hr was 3.54 µM and the concentration at 24 hr worked out at 1.97 µM. Moreover, in data set [2] (setting [4]), the concentration at 0.25 hr worked out at 73 µM, the concentration at 0.5 hr came out at 94.8 µM, the concentration at 1 hr came to 95.2 µM and the concentration at 3 hr was 93.6 µM. Also, in data set [2] (setting [4]), the concentration at 6 hr came out at 35.3 µM and the concentration at 24 hr is 4.02 µM. In data set [2] (setting [5]), the concentration at 0.25 hr worked out at 1.15 µM, the concentration at 0.5 hr is 0.45 µM, the concentration at 1 hr is 0.62 µM and the concentration at 3 hr is 0.98 µM. In data set [2] (setting [5]), the concentration at 6 hr came to 2.14 µM and the concentration at 24 hr worked out at 0.61 µM. Also, in data set [2] (setting [6]), the concentration at 0.25 hr came out at 12.4 µM, the concentration at 0.5 hr amounted to 11.3 µM, the concentration at 1 hr was 21.8 µM and the concentration at 3 hr was 4.35 µM. Besides, in data set [2] (setting [6]), the concentration at 6 hr came out at 6.66 µM and the concentration at 24 hr is 3.11 µM.

As to `Cc1cc(Cl)cc2sc(OC3CCN(C(=O)CCCS(=O)(=O)c4cccc(Br)c4)CC3F)nc12` (stereo not shown) [VU6045330], the “HEK hSLO2.2 % inhib. 10 μM” value on hSLO2.2 is given as “No inhibition”.
